Reference: the OligoGym collection
After the bases stand the sugars from the 5' end (letter, count) and the backbone: PS all phosphorothioate, else s phosphorothioate and o phosphodiester by linkage. Methylation of C is not given here. e = 2'-O-(2-methoxyethyl) (MOE); k = constrained ethyl (cEt); d = 2'-deoxy (DNA); m = 2'-O-methyl

Target: HSD17B13
Settings: ASO, HepaRG

Sequence | target mRNA inhibition (1 µM) [%] | also measured
CTTATGTAATAGCCAG (sugars k2 d10 k3 e1, PS) | 70 | 
GTAAACGACTCTGTAA (sugars k3 d10 k3, PS) | 8 | 
GATATACTGTCCCAGC (sugars k3 d10 k3, PS) | 34 | 
TGATGTAGTGGGAGTC (sugars k3 d10 k3, PS) | 65 | 
ACTGACAACCCTTAAC (sugars k3 d10 k3, PS) | 10 | 
GTACAGTAGGCAGTTT (sugars k3 d10 k3, PS) | 50 | 
TAAATTACTCCGTTCT (sugars k3 d10 k3, PS) | 36 | 
TTATTGTAGGGATTGA (sugars k3 d10 k3, PS) | 63 | 
TCTATTAGTTGGCCTG (sugars k3 d10 k3, PS) | 26 | 
TTCTGATGTCAGACCT (sugars k3 d10 k3, PS) | 42 | 
ATAGGACATGGAGACA (sugars k3 d10 k3, PS) | 82 | target mRNA inhibition (0.02 µM): 14%; target mRNA inhibition (0.078 µM): 18%; target mRNA inhibition (0.313 µM): 48%; target mRNA inhibition (1.25 µM): 74%; target mRNA inhibition (5 µM): 79%
TCAACTAAACATGACA (sugars k3 d10 k3, PS) | 77 | target mRNA inhibition (0.02 µM): 0%; target mRNA inhibition (0.078 µM): 0%; target mRNA inhibition (0.313 µM): 42%; target mRNA inhibition (1.25 µM): 69%; target mRNA inhibition (5 µM): 89%
TGAGGTTTTGATACCA (sugars k3 d10 k3, PS) | 63 | 
GATATGTCAATACTCC (sugars k3 d10 k3, PS) | 59 | 
AGAATAGAGTTGCACC (sugars k3 d10 k3, PS) | 70 | 
GTCCTTGTGTAGTCCT (sugars k3 d10 k3, PS) | 62 | 
AGTTATTCTCTTGACA (sugars k3 d10 k3, PS) | 48 | 
GGGAGGTAGCTTTTGT (sugars k3 d9 k3 e1, PS) | 40 | 
GAATGCTACTTGAACA (sugars k3 d9 k3 e1, PS) | 56 | 
GCCTTTTAACTACCCT (sugars k3 d10 k3, PS) | 0 | 
GCAGUTATTAGAAGTC (sugars k3 d1 m1 d8 k3, PS) | 59 | 
TTGACTGCTGCTAGTG (sugars k3 d1 m1 d8 k3, PS) | 40 | 
CTAAACATCTCTGGGA (sugars k3 d9 k3 e1, PS) | 57 | 

Sequence | target mRNA inhibition (1 µM) [%] | also measured
TAATTTTCAGATCCCG (sugars k3 d10 k3, PS) | 75 | target mRNA inhibition (0.02 µM): 0%; target mRNA inhibition (0.078 µM): 9%; target mRNA inhibition (0.313 µM): 41%; target mRNA inhibition (1.25 µM): 62%; target mRNA inhibition (5 µM): 89%
GTAAGCACAGAAGTTT (sugars k3 d10 k3, PS) | 55 | 
GTGGCCATGATTTCTC (sugars k3 d10 k3, PS) | 40 | 
TATTATGTGATTGAGT (sugars k3 d1 m1 d8 k3, PS) | 28 | 
AAACATAGGCTTAGTG (sugars k3 d10 k3, PS) | 16 | 
GACTAAGGAGCTAGAT (sugars k3 d10 k3, PS) | 25 | 
AAGGCTTATGAAGTTA (sugars k3 d10 k3, PS) | 61 | 
GCTAGTGCCAAACCAA (sugars k3 d1 m1 d8 k3, PS) | 65 | 
CTGAGTAAACGACTCT (sugars k3 d10 k3, PS) | 33 | 
GCTACAGATTGGAATG (sugars k3 d10 k3, PS) | 47 | 
CTATCAACCTGCACAC (sugars k3 d10 k3, PS) | 39 | 
AATATCAGCCATCTAG (sugars k3 d10 k3, PS) | 24 | 
AATACGCTGAGAGTTA (sugars k3 d10 k3, PS) | 48 | 
GTATGGTAAGCCCCAT (sugars k3 d10 k3, PS) | 36 | 
AAACATCTCTGGGACC (sugars kkdddddddddkekek, PS) | 36 | 
GAGACATGAGGTTTTG (sugars k3 d10 k3, PS) | 77 | target mRNA inhibition (0.02 µM): 0%; target mRNA inhibition (0.078 µM): 0%; target mRNA inhibition (0.313 µM): 22%; target mRNA inhibition (1.25 µM): 65%; target mRNA inhibition (5 µM): 88%
ATTTTACTGGGATACT (sugars k3 d10 k3, PS) | 49 | 
ACTAGAACTCCCAACC (sugars k3 d10 k3, PS) | 20 | 
GACGATGTGGCCATGA (sugars k3 d10 k3, PS) | 42 | 
ATTATATGAGGTCTGT (sugars k3 d10 k3, PS) | 59 | 
GATTGCATAAGAGCCA (sugars k3 d10 k3, PS) | 82 | target mRNA inhibition (0.02 µM): 6%; target mRNA inhibition (0.078 µM): 31%; target mRNA inhibition (0.313 µM): 57%; target mRNA inhibition (1.25 µM): 67%; target mRNA inhibition (5 µM): 58%
TAAGGCAAAGATCTGG (sugars k3 d10 k3, PS) | 46 | 
ATGTAATAGCCAGTAC (sugars k3 d10 k3, PS) | 52 | 

Sequence | target mRNA inhibition (1 µM) [%] | also measured
CCATCTATCAGACTTC (sugars kkdddddddddkekek, PS) | 52 | 
AATCAATCTGTCTGAA (sugars k3 d10 k3, PS) | 34 | 
GAGGATAGTGAACATA (sugars k3 d10 k3, PS) | 50 | 
CCTGAAAAGCCCTATT (sugars k3 d10 k3, PS) | 0 | 
TGCCAGGGAATGCTCA (sugars k3 d10 k3, PS) | 23 | 
TCCAGTAAAAAATTGG (sugars k3 d10 k3, PS) | 12 | 
ACCACATACGCATGCG (sugars k3 d10 k3, PS) | 45 | 
CATCTACATGGATCCA (sugars k3 d10 k3, PS) | 63 | 
GCCAAGGGAACACTGT (sugars k3 d10 k3, PS) | 61 | 
CGGTCACCTTTCATAA (sugars k3 d10 k3, PS) | 69 | 
CTACCTCCAAATTCCC (sugars k3 d10 k3, PS) | 27 | 
AATTTATTGGTATGGT (sugars k3 d10 k3, PS) | 30 | 
GAACAGTCTTAAACCT (sugars k3 d1 m1 d8 k3, PS) | 75 | target mRNA inhibition (0.02 µM): 0%; target mRNA inhibition (0.078 µM): 24%; target mRNA inhibition (0.313 µM): 53%; target mRNA inhibition (1.25 µM): 66%; target mRNA inhibition (5 µM): 69%
GCTTAGTACCAAGACA (sugars k3 d10 k3, PS) | 62 | 
CTGAAATTGATACACC (sugars k3 d9 k3 e1, PS) | 75 | target mRNA inhibition (0.02 µM): 0%; target mRNA inhibition (0.078 µM): 17%; target mRNA inhibition (0.313 µM): 51%; target mRNA inhibition (1.25 µM): 61%; target mRNA inhibition (5 µM): 81%
AAAAGACTTTGAGACT (sugars k3 d10 k3, PS) | 32 | 
AATACATATCTTACTC (sugars k3 d10 k3, PS) | 37 | 
ATCCCCTAAGTTATTA (sugars k3 d10 k3, PS) | 13 | 
GCTTATCGAGTTTAGC (sugars k3 d10 k3, PS) | 17 | 
CAGATTATTATGTGAT (sugars k3 d9 k3 e1, PS) | 38 | 
AAATAGAGTCGGTCAC (sugars k3 d1 m1 d8 k3, PS) | 63 | 
TTAGTATAGTTATCTT (sugars k3 d10 k3, PS) | 37 | 
TAAGAGGCATGAAAGG (sugars k3 d1 m1 d8 k3, PS) | 50 | 

Sequence | target mRNA inhibition (1 µM) [%] | also measured
TTGCAGAAATTCACCT (sugars kkdddddddddkekek, PS) | 46 | 
GAGAATTGTTTAGTTC (sugars k3 d10 k3, PS) | 47 | 
AGACAGTTGAGTAGTG (sugars k3 d10 k3, PS) | 63 | 
ACAATCTAGCAACCTC (sugars k3 d10 k3, PS) | 44 | 
GGCCAAGGGAACACTG (sugars k3 d10 k3, PS) | 36 | 
ACTTCTTACGACTTCA (sugars k3 d10 k3, PS) | 43 | 
GTCGGTCACCTTTCAT (sugars k3 d1 m1 d8 k3, PS) | 66 | 
TCAACCTGCACACCAT (sugars k3 d10 k3, PS) | 72 | target mRNA inhibition (0.02 µM): 14%; target mRNA inhibition (0.078 µM): 32%; target mRNA inhibition (0.313 µM): 47%; target mRNA inhibition (1.25 µM): 71%; target mRNA inhibition (5 µM): 84%
GCAAAGATCTGGCCAG (sugars k3 d10 k3, PS) | 22 | 
TTATGTAATAGCCAGT (sugars kkdddddddddkekek, PS) | 63 | 
TTTCGCTACTGTAGGC (sugars k3 d10 k3, PS) | 62 | 
CTTCTTACGACTTCAT (sugars k3 d10 k3, PS) | 45 | 
TAGTCCTAGGGAGGAG (sugars k3 d10 k3, PS) | 68 | 
CGGCAAATTTGCTGGA (sugars k3 d10 k3, PS) | 29 | 
CAGCATTGATTCGAAA (sugars k3 d9 k3 e1, PS) | 53 | 
TTCAGTTAGCAGCTAA (sugars k3 d10 k3, PS) | 72 | target mRNA inhibition (0.02 µM): 0%; target mRNA inhibition (0.078 µM): 0%; target mRNA inhibition (0.313 µM): 26%; target mRNA inhibition (1.25 µM): 63%; target mRNA inhibition (5 µM): 82%
ACCGTTTTGGGCTAAT (sugars k3 d10 k3, PS) | 78 | target mRNA inhibition (0.02 µM): 0%; target mRNA inhibition (0.078 µM): 0%; target mRNA inhibition (0.313 µM): 45%; target mRNA inhibition (1.25 µM): 81%; target mRNA inhibition (5 µM): 95%
AAAAAATTGGTTTCGA (sugars k3 d10 k3, PS) | 20 | 
TACAACCTGGTTTCAT (sugars k3 d10 k3, PS) | 25 | 
CAGACTAAGGGACCAG (sugars k3 d10 k3, PS) | 75 | target mRNA inhibition (0.02 µM): 23%; target mRNA inhibition (0.078 µM): 24%; target mRNA inhibition (0.313 µM): 63%; target mRNA inhibition (1.25 µM): 76%; target mRNA inhibition (5 µM): 89%
TAGGAAGTGATCCATA (sugars k3 d10 k3, PS) | 30 | 
TTTTTAATACGACTTC (sugars k3 d10 k3, PS) | 52 | 
